Results as given in ChEMBL document CHEMBL2074520, “Characterization of the high-affinity monocarboxylate transporter MCT2 in Xenopus laevis oocytes” (Biochem J, 1999).

B1: Monocarboxylate transporter 2 (Rattus norvegicus), Q63344 (protein)
chain: MPSESSVKATAAPPPFPLPPDGGWGWVVVCASFISIGFSYAFPKAVTVFFNDIKDIFKTTSSQIAWISSIMLAVMYAGGPISSVLVNNYGSRPVVIVGGLLCCTGMILASFSSSVIELYLTVGFIGGLGLAFNLQPALTIIGKYFYRKRPLANGFAMAGSPVFLSTLAPFNQFLFNSYGWKGSFLILGAIFLHSCVAGCLMRPVGPSPRAAKSKSKVGSRQDSSTKRLSKVSTAEKINRFLDFGLFTHRGFLIYLSGNVVLFLGMFAPIIFLAPYAKDKGVDDYNSAFLLSVMAFTDMFARPSVGLIANTSLIRPRIQYLFSVAIMFTGICHLLCPLAHSYTALVVYVIFFGIGFGSISSLLFECLMDQVGASRFSSAVGLVTIVECCPVLFGPPLAGKLLDITGQYKYLYIASGIVVLSSGIYLLICNAINYRLLEKERKREKARRKKSASQASKEMEALSRSKQDDVTVKVSNTHNPPSDRDKESSI

Experiments:
[1] = target: T1, Monocarboxylate transporter 1 (Rattus norvegicus) (UniProt P53987); assay: (§1) TP_TRANSPORTER: inhibition of lactate uptake in Xenopus laevis oocytes; assay type: functional, cell-based; design: concentration or dose not given beside the values; details: Oocyte
T1 sequence (whole entry): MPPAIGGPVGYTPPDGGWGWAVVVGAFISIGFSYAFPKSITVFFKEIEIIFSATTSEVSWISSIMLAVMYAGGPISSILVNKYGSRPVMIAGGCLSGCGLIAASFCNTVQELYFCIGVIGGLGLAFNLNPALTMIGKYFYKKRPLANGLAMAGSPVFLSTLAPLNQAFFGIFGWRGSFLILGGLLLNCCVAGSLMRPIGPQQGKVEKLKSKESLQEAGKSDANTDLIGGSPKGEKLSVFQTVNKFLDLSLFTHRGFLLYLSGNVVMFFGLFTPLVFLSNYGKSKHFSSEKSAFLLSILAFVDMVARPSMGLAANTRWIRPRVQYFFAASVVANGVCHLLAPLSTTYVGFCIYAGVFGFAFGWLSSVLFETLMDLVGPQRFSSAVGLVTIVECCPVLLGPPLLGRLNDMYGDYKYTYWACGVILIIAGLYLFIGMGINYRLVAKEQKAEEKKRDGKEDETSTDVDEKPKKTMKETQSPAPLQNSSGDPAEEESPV

[2] = target: T2, Monocarboxylate transporter 2 (Rattus norvegicus) (UniProt Q63344); assay: as §1; assay type: functional, cell-based; design: concentration or dose not given beside the values; details: Oocyte
T2 sequence (whole entry): B1 chain

[3] = target: T3, Monocarboxylate transporter 2 (Rattus norvegicus, UniProt Q63344); assay: as §1; assay type: functional, cell-based, Oocyte
T3 sequence (Q63344 whole entry): B1 chain

[4] = target: T4, Monocarboxylate transporter 1 (Rattus norvegicus, UniProt P53987); assay: as §1; assay type: functional, cell-based, Oocyte
T4 sequence (P53987 whole entry): T1 sequence (whole entry)

[5] = target: Monocarboxylate transporter 2 (Rattus norvegicus) (UniProt Q63344); assay: as §1; assay type: functional, cell-based; design: concentration or dose not given beside the values; details: Oocyte; remark: listed apart in the source
[6] = target: Monocarboxylate transporter 1 (Rattus norvegicus) (UniProt P53987); assay: as §1; assay type: functional, cell-based; design: concentration or dose not given beside the values; details: Oocyte; remark: listed apart in the source
[7] = compound: C[C@@H](O)C(=O)O; assay: as §1; assay type: functional, cell-based; details: Oocyte

Molecule	Activity [1]	Activity [2]	also measured
CC(=O)Oc1ccccc1O	92%	105%	–
CCCCCC#CCC#CCC#CCC#CCCCC(=O)O	117%	125%	–
CCCN(CCC)S(=O)(=O)c1ccc(C(=O)O)cc1	110%	88%	–
O=C(O)C(O)c1ccccc1 (stereo not drawn)	97%	117%	–
O=C(O)CC12CC3CC(CC(C3)C1)C2	96%	113%	–
O=C(O)c1c2ccccc2cc2ccccc12	102%	104%	–
O=C(O)c1cc([N+](=O)[O-])ccc1NCCCc1ccccc1	54%	25%	–
O=C(O)c1ccc(-c2ccccc2)cc1	88%	74%	–
O=C(O)c1cccnc1Nc1cccc(C(F)(F)F)c1	36%	14%	–
O=[N+]([O-])c1ccc(/C=C/c2ccc([N+](=O)[O-])cc2S(=O)(=O)O)c(S(=O)(=O)O)c1	112%	119%	–
c1ccc(CSSCc2ccccc2)cc1	99%	44%	–
CC(O)CC(=O)O (racemic) [3-HYDROXYBUTYRIC ACID, (+/-)-]	–	–	Ki [3]: 1200 µM
CC(C)CC(=O)C(=O)O [2-Oxoisohexanoate]	–	–	Ki [3]: 100 µM
CC(C)C(=O)C(=O)O [2-Oxoisovalerate]	–	–	Ki [3]: 300 µM
CC(=O)CC(=O)O [ACETOACETIC ACID]	–	–	Ki [3]: 800 µM
CCc1oc2ccccc2c1C(=O)c1cc(Br)c(O)c(Br)c1 [BENZBROMARONE]	19%	12%	IC50 [3]: 9 µM; IC50 [4]: 22 µM
O=C(CCc1ccc(O)cc1)c1c(O)cc(O)cc1O [PHLORETIN]	14%	3%	IC50 [3]: 14 µM; IC50 [4]: 28 µM
CC(=O)C(=O)O [PYRUVATE]	–	–	Ki [3]: 80 µM
O=c1c(O)c(-c2ccc(O)c(O)c2)oc2cc(O)cc(O)c12 [QUERCETIN]	11%	17%	IC50 [3]: 5 µM; IC50 [4]: 14 µM
N#C/C(=C\c1ccc(O)cc1)C(=O)O [alpha-CYANO-4-HYDROXYCINNAMIC ACID]	74.4%	34%	IC50 [3]: 24 µM; IC50 [4]: 425 µM
MERCURIC CHLORIDE	–	–	Activity [5]: 54%; Activity [6]: 37%
p-Chloromercuribenzenesulfonate	–	–	Activity [5]: 118%; Activity [6]: 9%
B1	–	–	Km [7]: 740 µM
